Where two headings read alike, the source gives them in different places. Starred links: 1 amine or outer side, 2 acyl side, 3 side chain; linkers in the order of their positions; H or OH if unused. Non-standard residues stand in square brackets, D forms with d. Residues, ends and D or L forms follow the SMILES beside them. Groups on a side chain read outwards from the residue. ξ: configuration not given here. *: point of attachment. C20 diacid = O=C(O)CCCCCCCCCCCCCCCCCCC(=O)*; γGlu = O=C(O)[C@H](CCC(=O)[*:2])N[*:1]; αMeK = C[C@](N)(CCCCN)C(=O)O; ξIva = CCC(C)(N)C(=O)O; AEEA = NCCOCCOCC(=O)O; Aib = CC(C)(N)C(=O)O
Tests used:
human GLP-1R = target: T1, human GLP-1R (Homo sapiens, UniProt P43220); assay: cAMP HTRF agonist activity assay in CHO-K1 cells expressing GLP-1R; assay type: cell-based; for Activity against human GLP-1R (EC50 nM): 5% FBS, 0.1% Casein
T1 construct: expressed in transfected cells; host or cells: CHO-K1 clonal cell line
Procedure, shortened: (§1)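 Clonal CHO-K1 lines, 5000 cells/well, exposed to polypeptides for 30 min at 37°C. Intracellular cAMP read by HTRF (cAMP-d2 conjugate plus anti-cAMP-Eu cryptate in lysis buffer). Relative EC50 from four-parameter nonlinear fit of percent maximum response against concentration.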

[1] = Pharmacokinetics in mice after single intravenous injection; parameters: species or system C57 mice; details: mouse, in vivo, male C57 mice, single intravenous dose 200 nmol/kg, plasma; for clearance: read-out: CLp; for half-life: read-out: T1/2 (converted)
Procedure, shortened: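 Male C57 mice (~25 g, 4-6 weeks, n=3) received a single i.v. dose of 200 nmol/kg in 1×PBS. Plasma collected from 5 min to 72 h was methanol-precipitated with verapamil internal standard and quantified by LC-MS (ESI positive, MRM); PK parameters were calculated by PKSolver.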

human GCGR = target: T2, human GCGR (Homo sapiens, UniProt P47871); assay: cAMP HTRF agonist activity assay in CHO-K1 cells expressing GCGR; assay type: cell-based; for Activity against human GCGR (EC50 nM): 5% FBS, 0.1% Casein
T2 construct: expressed in transfected cells; host or cells: CHO-K1 clonal cell line
Protocol: Functional activity was determined in CHO-K1 clonal cell lines expressing GIPR, GLP-1R, and GCGR. […] Each recipient cell (5000 cells/well) was added to an SV 96-well plate (Cisbio, 66PL96025) and incubated with the prepared polypeptide at 37°Cfor 30 min. The resulting increase in intracellular cAMP was quantitatively measured using the cAMP-GS dynamic HTRF assay kit (Cisbio, 62AM4PEJ). Briefly, the intracellular cAMP levels were determined by adding cAMP-d2 conjugate in cell lysis buffer, followed by the antibody anti-cAMP-Eu cryptate (also in cell lysis buffer).
Using the maximum response percentage vs. the added polypeptide concentration, the relative EC50 values were derived through nonlinear regression analysis and fitted to a four-parameter logarithmic equation. For specific data, refer to Tables 7-1 to 7-8 below. […]

human GIPR = target: T3, human GIPR (Homo sapiens, UniProt P48546); assay: cAMP HTRF agonist activity assay in CHO-K1 cells expressing GIPR; assay type: cell-based; for Activity against human GIPR (EC50 nM): 5% FBS, 0.1% Casein
T3 construct: expressed in transfected cells; host or cells: CHO-K1 clonal cell line
T3 sequence (P48546 22-466): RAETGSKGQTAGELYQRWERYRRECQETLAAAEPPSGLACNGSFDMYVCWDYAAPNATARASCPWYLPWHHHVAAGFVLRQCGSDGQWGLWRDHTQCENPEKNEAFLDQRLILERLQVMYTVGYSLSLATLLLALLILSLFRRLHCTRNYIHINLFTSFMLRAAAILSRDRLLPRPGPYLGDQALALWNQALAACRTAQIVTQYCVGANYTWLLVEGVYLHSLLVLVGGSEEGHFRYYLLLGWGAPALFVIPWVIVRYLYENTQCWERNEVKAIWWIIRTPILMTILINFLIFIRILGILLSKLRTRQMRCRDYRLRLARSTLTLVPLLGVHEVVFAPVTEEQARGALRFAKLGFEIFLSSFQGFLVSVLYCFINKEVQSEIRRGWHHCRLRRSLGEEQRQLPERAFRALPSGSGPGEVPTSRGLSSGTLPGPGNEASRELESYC
Procedure, shortened: as §1

[2] = read-out: Activity against human GCGR (EC50 nM)
[3] = read-out: Activity against human GIPR (EC50 nM)
[4] = read-out: Activity against human GLP-1R (EC50 nM)

T2 sequence (P47871 26-477): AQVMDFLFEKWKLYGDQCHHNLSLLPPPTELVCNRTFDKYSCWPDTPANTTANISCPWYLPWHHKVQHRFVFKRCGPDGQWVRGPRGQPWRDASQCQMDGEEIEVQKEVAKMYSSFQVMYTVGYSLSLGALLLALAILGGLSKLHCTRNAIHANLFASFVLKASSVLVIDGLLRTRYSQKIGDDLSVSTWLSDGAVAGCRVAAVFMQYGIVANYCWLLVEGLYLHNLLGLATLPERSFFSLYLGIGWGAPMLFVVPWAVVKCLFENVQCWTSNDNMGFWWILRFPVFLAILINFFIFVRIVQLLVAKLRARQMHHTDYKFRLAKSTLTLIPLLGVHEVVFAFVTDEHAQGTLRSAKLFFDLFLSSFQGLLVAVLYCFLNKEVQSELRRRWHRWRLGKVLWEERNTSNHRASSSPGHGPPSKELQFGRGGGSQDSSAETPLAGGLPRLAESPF
T1 sequence (P43220 24-463): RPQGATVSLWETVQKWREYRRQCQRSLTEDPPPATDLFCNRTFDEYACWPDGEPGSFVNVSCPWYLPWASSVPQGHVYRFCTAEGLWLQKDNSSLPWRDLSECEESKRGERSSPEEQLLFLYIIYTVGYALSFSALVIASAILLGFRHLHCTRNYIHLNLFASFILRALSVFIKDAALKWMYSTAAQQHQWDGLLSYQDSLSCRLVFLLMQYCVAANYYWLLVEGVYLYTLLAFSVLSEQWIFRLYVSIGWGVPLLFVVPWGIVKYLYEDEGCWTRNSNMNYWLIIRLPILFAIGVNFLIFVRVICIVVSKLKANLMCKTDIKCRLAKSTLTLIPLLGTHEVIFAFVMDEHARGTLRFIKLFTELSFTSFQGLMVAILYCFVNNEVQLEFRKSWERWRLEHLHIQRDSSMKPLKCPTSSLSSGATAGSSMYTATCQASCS

| SMILES | EC50 (human GLP-1R) [nM] | AUC(0-inf) [1] [µM·h] | C0 [1] [µM] | clearance [1] [mL/min/kg] | half-life [1] [h] | EC50 (human GCGR) [nM] | EC50 (human GIPR) [nM] | EC50 (human GCGR; [2]) [nM] | EC50 (human GIPR; [3]) [nM] | EC50 (human GLP-1R; [4]) [nM] |
| --- | --- | --- | --- | --- | --- | --- | --- | --- | --- | --- |
| CC[C@H](C)[C@H](NC(=O)[C@H](CO)NC(=O)[C@H](CC(C)C)NC(=O)[C@H](CC(=O)O)NC(=O)[C@H](CO)NC(=O)[C@@H](NC(=O)[C@H](Cc1ccccc1)NC(=O)[C@@H](NC(=O)CNC(=O)[C@H](Cc1c[nH]cn1)NC(=O)C(C)(C)NC(=O)[C@@H](N)Cc1c[nH]cn1)[C@@H](C)O)[C@@H](C)O)C(=O)N[C@@](C)(CC(C)C)C(=O)N[C@@H](CC(C)C)C(=O)N[C@@H](CCC(=O)O)C(=O)N[C@@H](CCCCNC(=O)COCCOCCNC(=O)COCCOCCNC(=O)CC[C@H](NC(=O)CCCCCCCCCCCCCCCCCCC(=O)O)C(=O)O)C(=O)N[C@@H](CCCCN)C(=O)N[C@@H](C)C(=O)N[C@@H](C)C(=O)NC(C)(CC)C(=O)N[C@@H](CCC(=O)O)C(=O)N[C@@H](Cc1ccccc1)C(=O)N[C@H](C(=O)N[C@@H](CCC(=O)O)C(=O)N[C@@H](Cc1c[nH]c2ccccc12)C(=O)N[C@@H](CC(C)C)C(=O)N[C@@H](CC(C)C)C(=O)N[C@@H](C)C(=O)NCC(=O)NCC(=O)N1CCC[C@H]1C(=O)N[C@@H](CO)C(=O)N[C@@H](CO)C(=O)NCC(=O)N[C@@H](C)C(=O)N1CCC[C@H]1C(=O)N1CCC[C@H]1C(=O)N1CCC[C@H]1C(=O)N[C@@H](CO)C(N)=O)C(C)C (stereo partly drawn) [Compound 0138] | 0.019 | 18.5 | 3.28 | 0.181 | 8.2 | 0.055 | – | – | – | – |
| CC[C@H](C)[C@H](NC(=O)[C@](C)(CCCCN)NC(=O)[C@H](CO)NC(=O)[C@H](Cc1ccc(O)cc1)NC(=O)[C@H](CC(=O)O)NC(=O)[C@H](CO)NC(=O)[C@@H](NC(=O)[C@H](Cc1ccccc1)NC(=O)[C@@H](NC(=O)CNC(=O)[C@H](Cc1c[nH]cn1)NC(=O)C(C)(C)NC(=O)[C@@H](N)Cc1c[nH]cn1)[C@@H](C)O)[C@@H](C)O)C(=O)N[C@@H](CC(C)C)C(=O)N[C@@H](CCC(=O)O)C(=O)N[C@@H](CCCCNC(=O)COCCOCCNC(=O)COCCOCCNC(=O)CC[C@H](NC(=O)CCCCCCCCCCCCCCCCCCC(=O)O)C(=O)O)C(=O)N[C@@H](CCCCN)C(=O)N[C@@H](C)C(=O)N[C@@H](C)C(=O)N[C@@H](CCC(N)=O)C(=O)N[C@@H](CCC(=O)O)C(=O)N[C@@H](Cc1ccccc1)C(=O)N[C@H](C(=O)N[C@@H](CCC(=O)O)C(=O)N[C@@H](Cc1c[nH]c2ccccc12)C(=O)N[C@@H](CC(C)C)C(=O)N[C@@H](CC(C)C)C(=O)N[C@@H](C)C(=O)NCC(=O)NCC(=O)N1CCC[C@H]1C(=O)N[C@@H](CO)C(=O)N[C@@H](CO)C(=O)NCC(=O)N[C@@H](C)C(=O)N1CCC[C@H]1C(=O)N1CCC[C@H]1C(=O)N1CCC[C@H]1C(=O)N[C@@H](CO)C(N)=O)C(C)C [Compound 0119] (H-H[Aib]HGTFTSDYS[αMeK]ILEK([AEEA-AEEA-γGlu-C20 diacid])KAAQEFVEWLLAGGPSSGAPPPS-NH2) | 0.023 | 55.9 | 6.17 | 0.058 | 13 | 0.087 | 0.005 | – | – | – |
| CC(C)C[C@H](NC(=O)[C@H](CC(C)C)NC(=O)[C@H](Cc1c[nH]c2ccccc12)NC(=O)[C@H](CCC(=O)O)NC(=O)[C@@H](NC(=O)[C@H](Cc1ccccc1)NC(=O)[C@H](CCC(=O)O)NC(=O)[C@H](CCC(N)=O)NC(=O)[C@H](C)NC(=O)[C@H](C)NC(=O)[C@H](CCCCN)NC(=O)[C@H](CCCCNC(=O)COCCOCCNC(=O)COCCOCCNC(=O)CC[C@H](NC(=O)CCCCCCCCCCCCCCCCCCC(=O)O)C(=O)O)NC(=O)[C@H](CCC(=O)O)NC(=O)[C@H](CC(C)C)NC(=O)[C@H](CC(C)C)NC(=O)[C@](C)(CCCCN)NC(=O)[C@H](CO)NC(=O)[C@H](Cc1ccc(O)cc1)NC(=O)[C@H](CC(=O)O)NC(=O)[C@H](CO)NC(=O)[C@@H](NC(=O)[C@H](Cc1ccccc1)NC(=O)[C@@H](NC(=O)CNC(=O)[C@H](Cc1c[nH]cn1)NC(=O)C(C)(C)NC(=O)[C@@H](N)Cc1c[nH]cn1)[C@@H](C)O)[C@@H](C)O)C(C)C)C(=O)N[C@@H](C)C(=O)NCC(=O)NCC(=O)N1CCC[C@H]1C(=O)N[C@@H](CO)C(=O)N[C@@H](CO)C(=O)NCC(=O)N[C@@H](C)C(=O)N1CCC[C@H]1C(=O)N1CCC[C@H]1C(=O)N1CCC[C@H]1C(=O)N[C@@H](CO)C(N)=O [Compound 0112] (H-H[Aib]HGTFTSDYS[αMeK]LLEK([AEEA-AEEA-γGlu-C20 diacid])KAAQEFVEWLLAGGPSSGAPPPS-NH2) | – | – | – | – | – | – | – | 0.087 | 0.005 | – |
| CC[C@H](C)[C@H](NC(=O)[C@H](CC(C)C)NC(=O)[C@H](Cc1c[nH]c2ccccc12)NC(=O)[C@H](CCC(=O)O)NC(=O)[C@@H](NC(=O)[C@H](Cc1ccccc1)NC(=O)[C@H](CCC(=O)O)NC(=O)C(C)(CC)NC(=O)[C@H](C)NC(=O)[C@H](C)NC(=O)[C@H](CCCCN)NC(=O)[C@H](CCCCNC(=O)COCCOCCNC(=O)COCCOCCNC(=O)CC[C@H](NC(=O)CCCCCCCCCCCCCCCCCCC(=O)O)C(=O)O)NC(=O)[C@H](CCC(=O)O)NC(=O)[C@H](CC(C)C)NC(=O)[C@H](CC(C)C)NC(=O)[C@](C)(CCCCN)NC(=O)[C@H](CO)NC(=O)[C@H](CC(C)C)NC(=O)[C@H](CC(=O)O)NC(=O)[C@H](CO)NC(=O)[C@@H](NC(=O)[C@H](Cc1ccccc1)NC(=O)[C@@H](NC(=O)CNC(=O)[C@H](Cc1c[nH]cn1)NC(=O)C(C)(C)NC(=O)[C@@H](N)Cc1c[nH]cn1)[C@@H](C)O)[C@@H](C)O)C(C)C)C(=O)N[C@@H](CCC(=O)O)C(=O)NCC(=O)NCC(=O)N1CCC[C@H]1C(=O)N[C@@H](CO)C(=O)N[C@@H](CO)C(=O)NCC(=O)N[C@@H](C)C(=O)N1CCC[C@H]1C(=O)N1CCC[C@H]1C(=O)N1CCC[C@H]1C(=O)N[C@@H](CO)C(N)=O (stereo partly drawn) [Compound 0133] (H-H[Aib]HGTFTSDLS[αMeK]LLEK([AEEA-AEEA-γGlu-C20 diacid])KAA[ξIva]EFVEWLIEGGPSSGAPPPS-NH2) | – | – | – | – | – | – | – | 0.03 | 0.002 | 0.016 |
| CC[C@H](C)[C@H](NC(=O)[C@H](CO)NC(=O)[C@H](Cc1ccc(O)cc1)NC(=O)[C@H](CC(=O)O)NC(=O)[C@H](CO)NC(=O)[C@@H](NC(=O)[C@H](Cc1ccccc1)NC(=O)[C@@H](NC(=O)CNC(=O)[C@H](Cc1c[nH]cn1)NC(=O)C(C)(C)NC(=O)[C@@H](N)Cc1c[nH]cn1)[C@@H](C)O)[C@@H](C)O)C(=O)N[C@@H](CC(C)C)C(=O)N[C@@H](CC(C)C)C(=O)N[C@@H](CCC(=O)O)C(=O)N[C@@H](CCCCNC(=O)COCCOCCNC(=O)COCCOCCNC(=O)CC[C@H](NC(=O)CCCCCCCCCCCCCCCCCCC(=O)O)C(=O)O)C(=O)N[C@@H](CCCCN)C(=O)N[C@@H](C)C(=O)N[C@@H](C)C(=O)NC(C)(CC)C(=O)N[C@@H](CCC(=O)O)C(=O)N[C@@H](Cc1ccccc1)C(=O)N[C@H](C(=O)N[C@@H](CCC(=O)O)C(=O)N[C@@H](Cc1c[nH]c2ccccc12)C(=O)N[C@@H](CC(C)C)C(=O)N[C@@H](CC(C)C)C(=O)N[C@@H](C)C(=O)NCC(=O)NCC(=O)N1CCC[C@H]1C(=O)N[C@@H](CO)C(=O)N[C@@H](CO)C(=O)NCC(=O)N[C@@H](C)C(=O)N1CCC[C@H]1C(=O)N1CCC[C@H]1C(=O)N1CCC[C@H]1C(=O)N[C@@H](CO)C(N)=O)C(C)C (stereo partly drawn) [Compound 0135] | – | – | – | – | – | – | – | 0.019 | 0.001 | 0.013 |

From patent EP4745153A1, “GLP-1, GIP AND GCG RECEPTOR […] USE THEREOF” (Jiangsu Hengrui Pharmaceuticals Co., Ltd., priority 2023, dated 2025)
